# Test results reported in ChEMBL document CHEMBL1201862, “PubChem BioAssay data set” (2004).
# Activity calls are given as the source filed them. For most assays here, no stated cut-off is given here; in the data, actives have a measured EC50 and inactives only a lower limit.
# Key:
# [1] = Trypanosoma cruzi growth suppression in host cells – NIH3T3 host cells, beta-gal luminescence, confirmation (AID 2044); assay type: functional, cell-based;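 further: intracellular parasites grown in NIH/3T3 mouse fibroblasts as host cells; luminescent beta-galactosidase reporter signal from transgenic T. cruzi replicating inside host cells; inhibitors lower the luminescence signal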
# [2] = biological target: T1, Replicative DNA helicase DnaB (Mycobacterium tuberculosis, UniProt P9WMR3); assay: DnaB intein splicing inhibitors, dose response, biochemical, cell-free fluorescence (AID 449749); assay type: functional
# T1 sequence (P9WMR3 whole entry): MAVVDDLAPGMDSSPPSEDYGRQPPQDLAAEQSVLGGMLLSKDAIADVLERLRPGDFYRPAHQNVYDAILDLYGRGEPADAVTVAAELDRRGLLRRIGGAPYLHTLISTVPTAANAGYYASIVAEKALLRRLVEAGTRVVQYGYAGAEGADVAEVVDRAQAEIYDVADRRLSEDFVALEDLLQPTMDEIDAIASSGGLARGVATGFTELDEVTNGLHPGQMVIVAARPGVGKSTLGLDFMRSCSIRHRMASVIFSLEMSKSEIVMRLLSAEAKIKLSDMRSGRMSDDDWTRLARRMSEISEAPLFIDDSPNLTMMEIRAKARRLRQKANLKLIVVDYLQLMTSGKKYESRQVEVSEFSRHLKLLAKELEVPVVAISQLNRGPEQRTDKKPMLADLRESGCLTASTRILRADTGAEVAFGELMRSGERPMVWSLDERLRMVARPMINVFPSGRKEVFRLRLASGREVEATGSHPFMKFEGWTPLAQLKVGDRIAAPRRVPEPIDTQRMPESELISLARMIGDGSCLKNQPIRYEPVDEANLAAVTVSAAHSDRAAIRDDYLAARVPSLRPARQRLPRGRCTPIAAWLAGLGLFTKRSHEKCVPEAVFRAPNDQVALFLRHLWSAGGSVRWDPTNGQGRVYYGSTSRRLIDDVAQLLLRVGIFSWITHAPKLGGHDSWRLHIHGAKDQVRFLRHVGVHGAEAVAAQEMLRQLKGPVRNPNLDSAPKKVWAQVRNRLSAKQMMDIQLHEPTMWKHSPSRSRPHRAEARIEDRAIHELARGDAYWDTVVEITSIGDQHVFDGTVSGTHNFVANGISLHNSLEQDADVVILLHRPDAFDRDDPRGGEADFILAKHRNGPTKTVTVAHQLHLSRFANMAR
# Protein RecA = biological target: T2, Protein RecA (Mycobacterium tuberculosis, UniProt P9WHJ3); assay: Fluorescence Cell-Free Homogeneous Dose Retest to Identify Inhibitors of RecA-Intein Splicing Activity. [Related pubchem assays (depositor defined):AID2097, AID2223, AID489010, AID492950]; assay type: functional
# T2 sequence (P9WHJ3 whole entry): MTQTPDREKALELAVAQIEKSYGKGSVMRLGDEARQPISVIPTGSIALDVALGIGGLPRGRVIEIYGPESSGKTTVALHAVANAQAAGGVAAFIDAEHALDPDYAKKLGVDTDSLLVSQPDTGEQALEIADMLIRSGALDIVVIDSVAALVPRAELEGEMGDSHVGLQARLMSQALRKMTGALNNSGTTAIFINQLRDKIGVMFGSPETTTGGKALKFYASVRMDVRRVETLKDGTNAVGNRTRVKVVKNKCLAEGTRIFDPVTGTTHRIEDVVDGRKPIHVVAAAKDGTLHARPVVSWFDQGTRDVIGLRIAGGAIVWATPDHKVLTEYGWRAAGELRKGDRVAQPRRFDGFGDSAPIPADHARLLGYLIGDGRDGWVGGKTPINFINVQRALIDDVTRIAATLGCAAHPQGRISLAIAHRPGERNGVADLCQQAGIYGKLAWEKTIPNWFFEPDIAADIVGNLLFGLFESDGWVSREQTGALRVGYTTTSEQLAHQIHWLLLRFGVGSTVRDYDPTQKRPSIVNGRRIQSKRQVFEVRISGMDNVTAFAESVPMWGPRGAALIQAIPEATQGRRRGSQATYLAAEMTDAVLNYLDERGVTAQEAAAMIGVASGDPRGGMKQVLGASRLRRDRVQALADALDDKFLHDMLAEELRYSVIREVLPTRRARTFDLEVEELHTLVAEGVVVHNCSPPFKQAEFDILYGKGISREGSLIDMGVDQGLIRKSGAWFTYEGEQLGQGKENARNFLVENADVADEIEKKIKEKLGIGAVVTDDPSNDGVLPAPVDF
# [3] = system: Streptococcus sp. 'group A'; assay: Streptococcus pyogenes SK(-)GAS viability under kanamycin – luminescence, BacTiterGlo, confirmation, counter-screen for streptokinase expression inhibitor project, dose response (AID 1900); assay type: functional, organism-based
# Streptococcus = assay: GAS UMAA2166 growth inhibition – luminescence, BacTiterGlo, counter-screen for streptokinase expression inhibitor project, dose response (AID 1915); assay type: functional, organism-based;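 further: potency for reduction of bacterial viability or growth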
# Streptokinase A = biological target: T3, Streptokinase A (Streptococcus pyogenes serotype M1, UniProt P10520); assay: viability-normalized secreted streptokinase activity reduction – plasminogen activation absorbance, OD405, dose response (AID 1914); assay type: functional, Streptococcus pyogenes M1 GAS;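 further: secreted streptokinase activity via plasminogen activation per viability signal from cell pellet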
# T3 sequence (P10520 whole entry): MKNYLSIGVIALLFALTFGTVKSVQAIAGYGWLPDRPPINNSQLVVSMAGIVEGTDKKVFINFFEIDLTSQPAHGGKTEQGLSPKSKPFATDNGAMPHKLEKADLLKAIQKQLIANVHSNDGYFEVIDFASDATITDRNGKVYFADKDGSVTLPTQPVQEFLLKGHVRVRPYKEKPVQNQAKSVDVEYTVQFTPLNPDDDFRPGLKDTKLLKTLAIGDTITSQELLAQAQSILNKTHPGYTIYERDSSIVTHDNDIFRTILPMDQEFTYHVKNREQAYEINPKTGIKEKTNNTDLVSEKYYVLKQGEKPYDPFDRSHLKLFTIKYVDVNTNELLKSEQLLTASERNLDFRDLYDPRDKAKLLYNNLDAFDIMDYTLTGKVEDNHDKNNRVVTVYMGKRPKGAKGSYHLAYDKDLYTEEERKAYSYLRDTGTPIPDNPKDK
# [4] = NIH3T3 cell viability loss – ATP luminescence, mouse fibroblasts, counter-screen, dose response (AID 2010); assay type: functional, cell-based;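 further: cells exposed to compound for about 90 hours before reading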
# Cytochrome P450 1A2 = biological target: T4, Cytochrome P450 1A2 (Homo sapiens, UniProt P05177);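 further: PubChem cytochrome P450 panel assay, CYP1A2 panel member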
# T4 sequence (P05177 whole entry): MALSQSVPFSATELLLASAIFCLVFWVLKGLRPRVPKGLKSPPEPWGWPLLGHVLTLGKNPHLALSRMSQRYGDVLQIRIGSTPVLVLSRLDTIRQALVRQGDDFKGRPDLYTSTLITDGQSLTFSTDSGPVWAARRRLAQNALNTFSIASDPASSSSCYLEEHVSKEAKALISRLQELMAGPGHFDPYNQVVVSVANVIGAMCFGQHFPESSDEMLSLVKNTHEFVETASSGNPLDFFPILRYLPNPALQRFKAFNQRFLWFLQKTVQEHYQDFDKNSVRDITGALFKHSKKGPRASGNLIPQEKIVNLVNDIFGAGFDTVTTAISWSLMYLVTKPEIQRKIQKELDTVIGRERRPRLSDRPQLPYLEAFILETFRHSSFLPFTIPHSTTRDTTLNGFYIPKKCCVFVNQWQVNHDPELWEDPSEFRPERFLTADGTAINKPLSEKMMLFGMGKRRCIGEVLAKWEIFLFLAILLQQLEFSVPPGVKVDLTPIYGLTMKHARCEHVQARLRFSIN
smiles,measurement,setting,value
O=[N+]([O-])C(/C=C(/Cl)[N+](=O)[O-])=C(N1CCCCC1)N1CCCCC1,EC50,[1],1.25 µM (active)
same,AC50,[2],14.5 µM (active)
same,EC50,Protein RecA,8.34 µM (active)
COC(=O)CSc1nc2sc3c(c2c(=O)n1C1CCCCC1)CCN(C)C3,AC50,[2],> 120 µM (inactive)
same,EC50,Protein RecA,31.4 µM (active)
Cc1cc(Oc2ccc(-c3ccccc3)cc2)nc(N2CCOCC2)n1,EC50,[3],49.7 µM (active)
same,EC50,Streptococcus,> 150 µM (not active)
same,EC50,Streptokinase A,35.4 µM (active)
C=C(C)c1cccc(C(C)(C)NC(=O)NC2CCN(Cc3ccccc3)CC2)c1,EC50,[1],0.103 µM (active)
same,EC50,[4],> 60 µM (not active)
CN1CCN(c2nc(-c3ccccc3)nc(-c3ccc(F)cc3)c2C#N)CC1,EC50,[1],1.25 µM (active)
same,EC50,[4],> 60 µM (not active)
CCOC(=O)c1cc(-c2ccc(F)cc2)n(CCC(=O)NC2CCN(Cc3ccccc3)CC2)c1C,EC50,[1],0.773 µM (active)
same,EC50,[4],> 60 µM (not active)
Clc1cccc(Nc2ncnc3c2cnn3-c2ccccc2)c1,EC50,[3],7.78 µM (active)
same,EC50,Streptococcus,6.82 µM (active)
same,EC50,Streptokinase A,> 150 µM (not active)
COc1ccc(C2CC(c3ccccc3)=NN2c2ccc(S(N)(=O)=O)cc2)cc1 (configuration not stated),EC50,[1],2.83 µM (active)
same,EC50,[4],> 60 µM (inconclusive)
COc1ccc(Br)cc1C(=O)Nc1ccc(Cc2ccncc2)cc1,EC50,[1],3.4 µM (active)
same,EC50,[4],> 60 µM (not active)
CN(C)CCNC(=O)c1cc(Sc2ccc(F)cc2)nc2ccccc12,EC50,[1],0.282 µM (active)
same,EC50,[4],> 60 µM (not active)
CCOC(=O)c1cc(-c2ccc(OC(F)F)cc2)nc2c1c(=O)[nH]c(=O)n2C,EC50,[3],0.458 µM (active)
same,EC50,Streptococcus,1.97 µM (active)
CCCC(=O)OCCNc1cc(SCc2ccco2)c2nonc2c1[N+](=O)[O-],AC50,[2],4.88 µM (active)
same,EC50,Protein RecA,1.98 µM (active)
COc1ccc(C2=NN(C(=O)/C=C/c3ccccc3)C(c3ccccc3)C2)c(OC(C)=O)c1 (configuration not stated),AC50,[2],> 380 µM (inactive)
same,EC50,Protein RecA,53.8 µM (active)
O=C(O)COc1ccc(OCCNC[C@@H](O)COc2ccccc2)cc1,AC50,Cytochrome P450 1A2,39.8 µM (inconclusive)
Nc1nc(-c2ccc(Br)cc2)c(S(=O)(=O)c2ccccc2)s1,AC50,[2],4.22 µM (active)
same,EC50,Protein RecA,> 380 µM (inactive)
CCC[C@@H]1C[C@@]1(CCC)C(NC(=O)c1ccco1)c1ccc(Cl)cc1 (some centres not stated),AC50,Cytochrome P450 1A2,25.1 µM (inconclusive)
CCCc1n[nH]c2c1C(c1cccc(OC)c1)C(C#N)=C(N)O2 (configuration not stated),AC50,[2],19.3 µM (active)
same,EC50,Protein RecA,9.09 µM (active)
Cc1ccc(NC(=S)NC(=O)c2c(-c3ccccc3Cl)noc2C)cc1,AC50,Cytochrome P450 1A2,8.91 µM (inconclusive)
CS(=O)(=O)N1CCC2(CC1)CN(c1ccccc1)C2,AC50,Cytochrome P450 1A2,20 µM (inconclusive)
COc1ccc(N=Nc2cc(-c3ccccc3)ccc2O)cc1,EC50,[3],34.7 µM (active)
same,EC50,Streptococcus,> 150 µM (not active)
same,EC50,Streptokinase A,7.22 µM (active)
O=C(CCc1ccccc1)Nc1nnc(-c2ccc3c(c2)CCCC3)o1,EC50,[3],3.21 µM (active)
same,EC50,Streptococcus,26.2 µM (active)
same,EC50,Streptokinase A,> 150 µM (not active)
CCN1C(=O)C(=NNc2cccc(S(=O)(=O)N3CCOCC3)c2)C(=O)N(CC)C1=S,AC50,[2],> 380 µM (inactive)
same,EC50,Protein RecA,> 380 µM (inconclusive)
Cc1cccn2c(CNCC3(c4ccccc4)CCCC3)c(C(=O)N3CCOCC3)nc12,AC50,[2],> 380 µM (inactive)
same,EC50,Protein RecA,> 380 µM (inactive)
CCOC(=O)Cc1n[nH]c2c1C(c1ccsc1)C(C#N)=C(N)O2 (configuration not stated),AC50,[2],> 380 µM (inactive)
same,EC50,Protein RecA,31.3 µM (active)
CN(N)C(S)=Nc1ccc(Cl)cc1,AC50,[2],> 380 µM (inactive)
same,EC50,Protein RecA,> 380 µM (inactive)
CCC(C)Sc1cc(C(F)(F)F)c(C(=O)Nc2ccc(Cl)cc2)cn1 (configuration not stated),EC50,[3],4.03 µM (active)
same,EC50,Streptococcus,7.94 µM (active)
same,EC50,Streptokinase A,2.38 µM (active)
COCCn1c(=O)c(-c2cc(F)cc(F)c2)nc2cnc(Nc3cccc(OC)c3)nc21,AC50,Cytochrome P450 1A2,2.51 µM (inconclusive)
COc1ccc2cc(C(=O)/C=C/c3cc(OC)c(O)c(OC)c3)ccc2c1,EC50,[3],5.61 µM (active)
same,EC50,Streptococcus,14.7 µM (active)
same,EC50,Streptokinase A,> 150 µM (not active)
CSc1ccc(NC(=O)Nc2cccn(Cc3ccccc3F)c2=O)cc1,EC50,[1],4.33 µM (active)
same,EC50,[4],> 60 µM (not active)
O=C(/C=C\c1ccc(Cl)cc1)N[C@@]12CCC(=O)[C@@H]3Oc4c(O)ccc5c4[C@@]31CCN(CC1CC1)[C@@H]2C5,AC50,Cytochrome P450 1A2,39.8 µM (inconclusive)
Cc1ccc(NC(=O)C2CCCN(C(=O)c3ccc(Cl)cc3)C2)cc1S(=O)(=O)N1CCOCC1 (configuration not stated),EC50,[1],26.6 µM (active)
same,EC50,[4],> 60 µM (not active)
c1ccc(CCNc2ccccn2)nc1,AC50,Cytochrome P450 1A2,5.01 µM (inconclusive)
CCOc1cc(/C=N\NC(=O)OC(C)(C)C)ccc1OC(=O)c1ccco1,AC50,[2],12.8 µM (active)
same,EC50,Protein RecA,19.8 µM (active)
C=C1S/C(=N/c2ccccc2Cl)N(C(=O)c2sc3ccccc3c2Cl)C12CCCCC2,EC50,[3],20.2 µM (active)
same,EC50,Streptococcus,> 150 µM (not active)
same,EC50,Streptokinase A,19.8 µM (active)
OCCNc1nc(Nc2ccc(Br)cc2)nc2ccccc12,EC50,[1],0.801 µM (active)
same,EC50,[4],> 30 µM (not active)
CCOC(=O)C1=C(C)NC(C)=C(C(=O)OC)[C@@H]1c1cccc([N+](=O)[O-])c1 [(S)-NITRENDIPINE],AC50,Cytochrome P450 1A2,15.8 µM (inconclusive)
